According to ChEMBL document CHEMBL1201862, “PubChem BioAssay data set” (2004):
Active and inactive are the calls of the source.

Experiments:
[1] = cytotoxicity in HEK-293T cells, dose response, cytotoxicity control for TCR NF-kB inhibitor project, luminescence, T-cell screen hits (AID 489026); assay type: functional, cell-based;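 further: cells exposed to compound about 14 hours before the viability readout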
[2] = HepG2 cell cytotoxicity, dose response, cytotoxicity control for Shn3 inhibitor project, CellTiter-Glo, cherry-picked (AID 624134); assay type: functional, cell-based
[3] = tested on: INS1; assay: beta cell apoptosis inhibitors, cytokine rescue, dose response, luminescence, retest (AID 449756); assay type: functional, cell-based; settings: Rattus norvegicus;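 further: cell death triggered by IL-1 beta plus TNF-alpha plus IFN-gamma mixture; protective hits raise ATP signal compared with cytokine alone wells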
[4] = target: T1, Microphthalmia-associated transcription factor (Homo sapiens, UniProt O75030); assay: TRPM1 promoter luciferase signal decrease, dose response, MITF inhibitor project, cell-based, SK-MEL-5, cherry-picked, set 3 (AID 493073); assay type: functional
T1 sequence (O75030 whole entry): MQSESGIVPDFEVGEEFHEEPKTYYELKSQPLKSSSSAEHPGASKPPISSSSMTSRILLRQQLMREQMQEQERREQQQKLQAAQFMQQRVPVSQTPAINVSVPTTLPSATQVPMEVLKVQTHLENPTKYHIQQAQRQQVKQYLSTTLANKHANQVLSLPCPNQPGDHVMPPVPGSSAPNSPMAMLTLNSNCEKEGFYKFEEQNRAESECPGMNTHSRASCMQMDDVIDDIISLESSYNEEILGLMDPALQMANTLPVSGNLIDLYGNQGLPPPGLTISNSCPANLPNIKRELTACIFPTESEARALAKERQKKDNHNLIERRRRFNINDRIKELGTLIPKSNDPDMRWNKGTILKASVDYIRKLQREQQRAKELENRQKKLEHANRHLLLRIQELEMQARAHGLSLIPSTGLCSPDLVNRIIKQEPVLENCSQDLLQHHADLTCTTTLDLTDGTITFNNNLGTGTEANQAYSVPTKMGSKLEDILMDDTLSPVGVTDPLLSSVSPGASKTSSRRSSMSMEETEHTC

[5] = Shn3 3'UTR reporter inhibitors, dose response, cell-based, Clone20 osteoblasts, firefly luciferase, cherry-picked (AID 624132); assay type: functional;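 further: firefly luciferase luminescence from reporter carrying the Shn3 3'UTR in osteoblasts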
[6] = target: Nonstructural protein 1 (Influenza A virus, UniProt Q194T2); assay type: functional, Influenza A virus (A/California/07/2009(H1N1))
[7] = control 3'UTR Renilla luciferase suppression, dose response, counter-screen for Shn3 inhibitor project, cell-based, Clone20-Shn3RL, cherry-picked (AID 624133); assay type: functional
[8] = target: T2, Voltage-gated N-type calcium channel alpha-1B subunit/Amyloid beta A4 precursor protein-binding family A member 1 (Homo sapiens, UniProt Q00975+Q02410); assay type: protein assay
[9] = target: T2, Voltage-gated N-type calcium channel alpha-1B subunit/Amyloid beta A4 precursor protein-binding family A member 1; assay type: protein assay; remark: listed apart in the source
[10] = target: T3, Small ubiquitin-related modifier 1 (Homo sapiens, UniProt P63165); assay: inhibitors of SUMO1 partner interactions, dose response, biochemical, FRET (AID 624383); assay type: functional; settings: read-out: IC50_Mean
[11] = target: T3, Small ubiquitin-related modifier 1; assay: inhibitors of SUMO1 peptide binding, dose response, biochemical, fluorescence polarization, uHTS hits (AID 624382); assay type: functional; settings: read-out: IC50_Mean
[12] = target: T4, Carboxy-terminal domain RNA polymerase II polypeptide A small phosphatase 1 (Homo sapiens, UniProt Q9GZU7); assay: inhibitors of CTDSP1, concentration-response testing, biochemical assay, absorbance-based, actives from ultra-high-throughput screening (AID 540297); assay type: functional
T4 sequence (Q9GZU7 whole entry): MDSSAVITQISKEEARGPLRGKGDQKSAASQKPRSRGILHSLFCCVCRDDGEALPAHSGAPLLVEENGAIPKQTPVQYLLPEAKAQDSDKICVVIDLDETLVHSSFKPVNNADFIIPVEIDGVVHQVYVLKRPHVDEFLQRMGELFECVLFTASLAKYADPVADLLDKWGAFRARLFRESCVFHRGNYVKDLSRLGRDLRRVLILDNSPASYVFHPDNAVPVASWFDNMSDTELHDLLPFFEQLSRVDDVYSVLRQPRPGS

[13] = MC4R antagonists, dose response, counter-screen for LGR2 antagonist project, cell-based, plate reader, cherry pick (AID 743444); assay type: functional;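 further: transfected HEK 293 cells stimulated with alpha-MSH peptide; potency of inhibitors of the alpha-MSH evoked signal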
[14] = LGR2 antagonists, dose response, cell-based, HEK293, CRE-luciferase reporter, cherry pick, set 2 (AID 743343); assay type: functional;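 further: transfected cells were stimulated with diluted bursicon conditioned medium after compound addition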
[15] = target: T5, SUMO-activating enzyme (Homo sapiens, UniProt Q9UBT2); assay: inhibitors of in vitro SUMOylation cascade, primary screen, biochemical, HTRF, uHTS (AID 2006); assay type: protein-complex assay
[16] = target: T5, SUMO-activating enzyme; assay: SUMOylation inhibitor hit validation, confirmation, SUMOylation inhibitor project, biochemical, AlphaScreen (AID 2018); assay type: functional
[17] = target: T6, Aminopeptidase N (Plasmodium falciparum FcB1/Columbia, UniProt O96935); assay: P. falciparum M1AAP inhibitors, biochemical, fluorogenic H-Leu-NHMec substrate, 1536-well (AID 1445); parameters: species or system Plasmodium falciparum 3D7, 3D7
T6 sequence (O96935 whole entry): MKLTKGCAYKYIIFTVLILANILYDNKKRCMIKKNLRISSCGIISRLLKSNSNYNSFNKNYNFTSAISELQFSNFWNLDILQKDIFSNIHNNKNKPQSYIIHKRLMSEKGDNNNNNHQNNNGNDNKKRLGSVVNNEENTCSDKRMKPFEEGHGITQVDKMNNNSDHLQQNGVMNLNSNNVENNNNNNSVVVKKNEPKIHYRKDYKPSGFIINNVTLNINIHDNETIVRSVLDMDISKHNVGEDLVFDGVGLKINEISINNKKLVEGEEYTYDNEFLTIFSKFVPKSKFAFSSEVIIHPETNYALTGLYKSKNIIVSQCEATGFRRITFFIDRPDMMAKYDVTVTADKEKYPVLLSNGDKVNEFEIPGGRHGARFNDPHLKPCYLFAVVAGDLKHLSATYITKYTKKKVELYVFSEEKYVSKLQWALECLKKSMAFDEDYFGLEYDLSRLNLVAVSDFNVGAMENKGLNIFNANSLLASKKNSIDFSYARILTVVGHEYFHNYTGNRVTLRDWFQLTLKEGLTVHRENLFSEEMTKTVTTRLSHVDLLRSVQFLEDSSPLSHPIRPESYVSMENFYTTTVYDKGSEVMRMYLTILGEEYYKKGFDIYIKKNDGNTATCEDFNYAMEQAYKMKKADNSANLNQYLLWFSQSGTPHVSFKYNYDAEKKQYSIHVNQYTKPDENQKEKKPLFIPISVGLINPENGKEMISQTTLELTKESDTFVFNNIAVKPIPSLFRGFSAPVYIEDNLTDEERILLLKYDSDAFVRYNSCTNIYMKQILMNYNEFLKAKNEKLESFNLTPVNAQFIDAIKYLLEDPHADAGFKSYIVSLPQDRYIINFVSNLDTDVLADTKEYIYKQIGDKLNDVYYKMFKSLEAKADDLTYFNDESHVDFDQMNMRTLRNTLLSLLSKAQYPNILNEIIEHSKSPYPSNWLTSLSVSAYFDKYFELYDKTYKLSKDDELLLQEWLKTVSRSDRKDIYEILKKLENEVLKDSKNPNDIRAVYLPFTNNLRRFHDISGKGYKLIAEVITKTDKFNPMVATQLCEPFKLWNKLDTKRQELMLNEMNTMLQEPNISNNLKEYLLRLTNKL

[18] = Luminescence Cell-Based Dose Retest to Confirm Inhibitors of Cancer Stem Cells. [Related pubchem assays (depositor defined):AID2717, AID2721]; assay type: functional, Homo sapiens; settings: Homo sapiens
[19] = P. falciparum Dd2 growth inhibitors, dose response, SYBR Green, cherry-picked samples (AID 1159567); assay type: functional, cell-based
[20] = HepG2 cell cytotoxicity, dose response, cytotoxicity control, cherry-picked samples (AID 1159577); assay type: functional, cell-based
[21] = target: 5-hydroxytryptamine receptor 2A (Mus musculus, UniProt P35363); assay type: functional, cell-based;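 further: CHO-K1 cells with tagged receptor and beta-arrestin; agonist potency measured as compound-induced activation of the receptor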
[22] = target: Mu-type opioid receptor (Homo sapiens, UniProt P35372); assay type: functional, cell-based;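 further: U2OS cells with beta-arrestin recruitment to OPRM1 by beta-gal complementation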
[23] = target: T7, Estrogen receptor (Homo sapiens, UniProt P03372);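 further: potency for inhibiting coactivator peptide recruitment to the receptor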
T7 sequence (P03372 whole entry): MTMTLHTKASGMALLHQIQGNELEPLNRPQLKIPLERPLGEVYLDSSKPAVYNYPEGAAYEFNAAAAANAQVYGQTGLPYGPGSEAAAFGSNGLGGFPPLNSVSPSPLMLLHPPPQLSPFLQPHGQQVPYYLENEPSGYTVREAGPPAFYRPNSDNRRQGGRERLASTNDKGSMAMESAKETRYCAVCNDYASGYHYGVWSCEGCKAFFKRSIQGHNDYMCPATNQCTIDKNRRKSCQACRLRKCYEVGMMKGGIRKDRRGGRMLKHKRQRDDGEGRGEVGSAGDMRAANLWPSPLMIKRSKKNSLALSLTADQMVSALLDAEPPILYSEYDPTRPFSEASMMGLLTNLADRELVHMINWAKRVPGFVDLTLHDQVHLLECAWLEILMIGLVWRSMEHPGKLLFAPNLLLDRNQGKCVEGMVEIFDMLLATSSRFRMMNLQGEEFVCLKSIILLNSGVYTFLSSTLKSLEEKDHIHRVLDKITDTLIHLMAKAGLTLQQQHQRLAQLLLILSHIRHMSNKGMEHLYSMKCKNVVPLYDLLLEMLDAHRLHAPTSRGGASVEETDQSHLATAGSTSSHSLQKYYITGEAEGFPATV

T5 sequence (Q9UBE0 whole entry): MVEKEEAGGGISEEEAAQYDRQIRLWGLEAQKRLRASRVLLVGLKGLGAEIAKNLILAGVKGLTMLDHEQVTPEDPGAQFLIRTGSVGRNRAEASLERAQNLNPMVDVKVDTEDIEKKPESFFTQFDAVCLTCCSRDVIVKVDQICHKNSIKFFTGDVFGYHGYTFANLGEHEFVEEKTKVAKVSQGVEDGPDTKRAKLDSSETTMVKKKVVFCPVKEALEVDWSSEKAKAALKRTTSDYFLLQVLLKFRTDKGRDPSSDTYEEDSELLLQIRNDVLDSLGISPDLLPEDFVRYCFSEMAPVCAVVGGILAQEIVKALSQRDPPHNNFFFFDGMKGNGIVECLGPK
T5 sequence (Q9UBT2 whole entry): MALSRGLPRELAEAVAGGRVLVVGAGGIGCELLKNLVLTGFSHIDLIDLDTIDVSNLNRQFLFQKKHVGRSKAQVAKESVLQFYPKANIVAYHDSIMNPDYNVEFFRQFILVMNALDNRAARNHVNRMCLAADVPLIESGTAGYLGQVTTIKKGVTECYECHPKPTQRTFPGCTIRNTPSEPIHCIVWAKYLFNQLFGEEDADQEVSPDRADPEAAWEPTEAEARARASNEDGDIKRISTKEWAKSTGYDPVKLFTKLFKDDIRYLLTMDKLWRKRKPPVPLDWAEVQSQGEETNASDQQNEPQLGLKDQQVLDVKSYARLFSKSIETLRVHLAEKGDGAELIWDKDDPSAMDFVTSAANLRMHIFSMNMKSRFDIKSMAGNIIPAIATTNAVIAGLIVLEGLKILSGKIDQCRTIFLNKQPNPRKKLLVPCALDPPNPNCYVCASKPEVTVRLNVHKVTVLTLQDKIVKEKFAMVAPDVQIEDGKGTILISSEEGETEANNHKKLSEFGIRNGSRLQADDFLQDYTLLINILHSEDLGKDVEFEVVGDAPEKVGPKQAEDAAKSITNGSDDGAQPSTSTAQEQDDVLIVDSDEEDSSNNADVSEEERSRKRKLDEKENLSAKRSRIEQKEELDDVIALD
Chain of Nonstructural protein 1 (Q194T2 whole entry): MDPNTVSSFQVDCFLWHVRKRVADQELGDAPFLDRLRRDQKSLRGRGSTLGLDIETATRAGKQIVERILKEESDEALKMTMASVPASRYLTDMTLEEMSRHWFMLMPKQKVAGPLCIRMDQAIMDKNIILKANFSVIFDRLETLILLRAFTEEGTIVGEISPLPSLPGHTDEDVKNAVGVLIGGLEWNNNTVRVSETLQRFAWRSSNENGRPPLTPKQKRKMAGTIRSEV
T3 sequence (P63165 whole entry): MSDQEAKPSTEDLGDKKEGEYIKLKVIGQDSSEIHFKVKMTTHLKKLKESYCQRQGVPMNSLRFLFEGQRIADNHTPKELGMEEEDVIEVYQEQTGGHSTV
T2 sequence (Q00975 whole entry): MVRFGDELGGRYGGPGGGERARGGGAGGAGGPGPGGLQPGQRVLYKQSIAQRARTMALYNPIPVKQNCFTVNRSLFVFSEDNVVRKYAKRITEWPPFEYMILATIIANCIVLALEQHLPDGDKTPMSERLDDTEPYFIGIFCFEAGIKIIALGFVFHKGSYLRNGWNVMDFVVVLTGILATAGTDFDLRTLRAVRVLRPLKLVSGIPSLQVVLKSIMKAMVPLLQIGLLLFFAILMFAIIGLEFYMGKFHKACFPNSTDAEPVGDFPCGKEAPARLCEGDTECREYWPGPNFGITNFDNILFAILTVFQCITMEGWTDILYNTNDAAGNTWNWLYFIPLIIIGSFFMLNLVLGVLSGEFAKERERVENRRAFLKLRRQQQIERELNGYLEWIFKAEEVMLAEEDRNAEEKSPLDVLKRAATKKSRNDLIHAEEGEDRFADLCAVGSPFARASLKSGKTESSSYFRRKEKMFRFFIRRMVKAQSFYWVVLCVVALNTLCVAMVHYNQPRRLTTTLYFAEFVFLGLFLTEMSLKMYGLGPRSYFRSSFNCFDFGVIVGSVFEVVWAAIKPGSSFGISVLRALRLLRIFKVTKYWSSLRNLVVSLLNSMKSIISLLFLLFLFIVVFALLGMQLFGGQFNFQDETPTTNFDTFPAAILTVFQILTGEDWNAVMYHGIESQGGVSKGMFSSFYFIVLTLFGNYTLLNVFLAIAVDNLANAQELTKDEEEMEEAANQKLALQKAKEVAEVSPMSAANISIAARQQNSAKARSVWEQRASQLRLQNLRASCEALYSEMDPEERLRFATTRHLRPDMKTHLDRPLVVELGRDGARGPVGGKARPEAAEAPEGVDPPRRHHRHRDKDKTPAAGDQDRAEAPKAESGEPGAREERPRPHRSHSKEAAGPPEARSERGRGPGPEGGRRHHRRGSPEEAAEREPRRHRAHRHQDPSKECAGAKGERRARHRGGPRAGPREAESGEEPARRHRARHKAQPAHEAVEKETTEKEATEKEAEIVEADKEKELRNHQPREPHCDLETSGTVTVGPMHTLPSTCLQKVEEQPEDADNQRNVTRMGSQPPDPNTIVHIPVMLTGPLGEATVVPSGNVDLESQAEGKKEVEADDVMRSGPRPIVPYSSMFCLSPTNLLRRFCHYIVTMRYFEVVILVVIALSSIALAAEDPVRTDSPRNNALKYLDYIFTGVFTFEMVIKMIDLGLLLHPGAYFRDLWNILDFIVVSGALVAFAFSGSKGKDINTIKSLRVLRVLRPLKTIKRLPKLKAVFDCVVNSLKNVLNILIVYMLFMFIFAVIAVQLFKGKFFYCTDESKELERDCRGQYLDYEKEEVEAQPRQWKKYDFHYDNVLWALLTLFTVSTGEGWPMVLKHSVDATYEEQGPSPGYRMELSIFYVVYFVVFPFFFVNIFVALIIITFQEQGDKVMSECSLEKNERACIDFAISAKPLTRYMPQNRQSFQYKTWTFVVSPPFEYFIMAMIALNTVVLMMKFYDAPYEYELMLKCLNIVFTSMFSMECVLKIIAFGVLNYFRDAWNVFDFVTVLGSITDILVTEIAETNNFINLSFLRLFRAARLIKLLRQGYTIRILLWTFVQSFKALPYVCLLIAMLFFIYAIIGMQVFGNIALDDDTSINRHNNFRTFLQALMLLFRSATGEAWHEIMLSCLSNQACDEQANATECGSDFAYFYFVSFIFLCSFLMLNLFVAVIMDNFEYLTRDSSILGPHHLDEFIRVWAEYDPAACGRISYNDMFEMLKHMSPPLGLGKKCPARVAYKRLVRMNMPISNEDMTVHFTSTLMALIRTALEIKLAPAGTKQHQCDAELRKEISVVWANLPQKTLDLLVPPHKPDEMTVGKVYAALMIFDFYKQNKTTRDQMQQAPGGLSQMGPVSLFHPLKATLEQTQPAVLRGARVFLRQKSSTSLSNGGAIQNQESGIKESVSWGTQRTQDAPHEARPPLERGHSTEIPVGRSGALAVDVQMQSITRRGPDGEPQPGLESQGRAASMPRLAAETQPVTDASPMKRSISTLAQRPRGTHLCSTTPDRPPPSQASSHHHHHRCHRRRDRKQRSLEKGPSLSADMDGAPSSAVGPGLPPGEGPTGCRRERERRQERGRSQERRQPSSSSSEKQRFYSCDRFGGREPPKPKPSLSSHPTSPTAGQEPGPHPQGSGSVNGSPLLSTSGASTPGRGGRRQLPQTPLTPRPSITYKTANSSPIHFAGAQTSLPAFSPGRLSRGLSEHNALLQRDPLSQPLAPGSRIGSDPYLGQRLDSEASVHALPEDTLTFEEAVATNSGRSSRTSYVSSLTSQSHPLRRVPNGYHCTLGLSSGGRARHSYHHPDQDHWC
T2 sequence (Q02410 whole entry): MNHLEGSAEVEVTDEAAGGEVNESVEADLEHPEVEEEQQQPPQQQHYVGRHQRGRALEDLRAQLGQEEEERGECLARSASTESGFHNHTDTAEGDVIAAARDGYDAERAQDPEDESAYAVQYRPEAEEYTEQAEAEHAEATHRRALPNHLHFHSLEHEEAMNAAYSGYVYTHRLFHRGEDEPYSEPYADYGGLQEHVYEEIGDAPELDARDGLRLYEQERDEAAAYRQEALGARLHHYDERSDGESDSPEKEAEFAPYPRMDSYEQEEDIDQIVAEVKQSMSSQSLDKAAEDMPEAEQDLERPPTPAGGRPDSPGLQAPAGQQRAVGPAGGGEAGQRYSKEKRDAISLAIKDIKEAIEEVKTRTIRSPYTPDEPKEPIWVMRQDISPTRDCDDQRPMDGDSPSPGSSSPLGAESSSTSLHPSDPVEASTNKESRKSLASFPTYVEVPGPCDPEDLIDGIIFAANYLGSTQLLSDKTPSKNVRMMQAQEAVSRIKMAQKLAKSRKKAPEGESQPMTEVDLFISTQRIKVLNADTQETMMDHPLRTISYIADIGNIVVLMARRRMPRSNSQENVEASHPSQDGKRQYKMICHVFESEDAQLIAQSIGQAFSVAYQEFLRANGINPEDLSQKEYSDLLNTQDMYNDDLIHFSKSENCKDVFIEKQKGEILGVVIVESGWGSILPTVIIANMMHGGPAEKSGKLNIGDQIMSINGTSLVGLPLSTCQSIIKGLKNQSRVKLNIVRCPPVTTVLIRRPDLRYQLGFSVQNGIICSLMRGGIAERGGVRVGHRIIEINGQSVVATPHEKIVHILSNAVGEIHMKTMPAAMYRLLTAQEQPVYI
Chain of 5-hydroxytryptamine receptor 2A (P35363 whole entry): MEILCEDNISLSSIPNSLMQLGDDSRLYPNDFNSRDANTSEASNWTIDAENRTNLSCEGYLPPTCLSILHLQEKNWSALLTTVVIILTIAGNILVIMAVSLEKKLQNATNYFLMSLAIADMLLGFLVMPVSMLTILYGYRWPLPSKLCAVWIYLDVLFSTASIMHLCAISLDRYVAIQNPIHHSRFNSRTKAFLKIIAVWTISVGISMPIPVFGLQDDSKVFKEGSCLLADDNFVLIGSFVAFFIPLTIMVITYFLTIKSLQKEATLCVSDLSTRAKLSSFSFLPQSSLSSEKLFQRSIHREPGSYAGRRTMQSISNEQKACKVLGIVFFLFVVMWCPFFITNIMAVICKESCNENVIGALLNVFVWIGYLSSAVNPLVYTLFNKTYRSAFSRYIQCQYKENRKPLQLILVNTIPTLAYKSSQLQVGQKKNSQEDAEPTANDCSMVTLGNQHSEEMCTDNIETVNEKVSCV

Structure (SMILES): O=C(Nc1ccncc1)C1CCCN(S(=O)(=O)c2cccc3cccnc23)C1 (configuration not stated)
- IC50 [1]: 67.5 µM (inactive)

Structure (SMILES): O=C(Nc1nc(-c2ccccn2)cs1)c1ccc(F)c(S(=O)(=O)N2CCOCC2)c1
- AC50 [2]: > 70 µM (inactive)
- AC50 [3]: 1.59 µM (active)
- AC50 [4]: 5.7 µM (active)
- AC50 [5]: 1.32 µM (active)
- IC50 [6]: 7.88 µM (active)
- AC50 [7]: 0.711 µM (active)

Structure (SMILES): Cc1nc2sc(C(=O)OC(C)C)c(N)c2c(C)c1C
- IC50 [8]: > 50 µM (inactive)
- IC50 [9]: 4.25 µM (active)

Structure (SMILES): O=C(O)c1cc(-c2ccco2)nn1-c1cccc(Cl)c1
- IC50 [10]: 27.1 µM (inactive)
- IC50 [11]: > 66.6 µM (inactive)
- IC50 [12]: 5.39 µM (active)

Structure (SMILES): Cn1cccc1C(=O)OCC(=O)Nc1ccc2c(c1)OCCO2
- AC50 [13]: 14.8 µM (active)
- AC50 [14]: 11.3 µM (active)

Structure (SMILES): O=C(Nc1ccc(N2CCOCC2)cc1)c1ccc(Cl)c(S(=O)(=O)N2CCCCC2)c1
- AC50 [2]: 1.18 µM (active)
- IC50 [1]: > 80 µM (inactive)
- AC50 [5]: 0.81 µM (active)
- AC50 [7]: 1.58 µM (active)

Structure (SMILES): COc1cccc(N2CCN(C(=O)c3cn(Cc4ccccc4)nc3-c3cccnc3)CC2)c1
- IC50 [1]: > 80 µM (inactive)

Structure (SMILES): COc1ccc2[nH]c3c(=O)n(CCCC(=O)NC4CCC(C)CC4)c(=S)[nH]c3c2c1 (configuration not stated)
- IC50 [15]: 22.7 µM (active)
- IC50 [16]: 38.1 µM (active)

Structure (SMILES): O=C(N/N=C(\Cc1ncc[nH]1)c1ccccc1)c1ccncc1
- AC50 [3]: 7.38 µM (active)
- IC50 [17]: 21.4 µM (active)
- AC50 [18]: 3.42 µM (active)
- IC50 [6]: 2.46 µM (active)

Structure (SMILES): COc1ccccc1C#Cc1ccc([C@@H]2[C@@H](CO)N(C(=O)C3CCCC3)[C@H]2C#N)cc1
- AC50 [19]: 4.57 µM (active)
- AC50 [20]: > 39 µM (inactive)

Structure (SMILES): COc1ccc(C#Cc2ccc([C@H]3[C@@H](CO)N4CCCCN(Cc5ccncc5)C[C@H]34)cc2)cc1
- AC50 [19]: 1.87 µM (active)
- AC50 [20]: 10.7 µM (active)

Structure (SMILES): O=C1C2CCCN2C(=O)N1CCCCN1CCN(c2ccccc2)CC1 (configuration not stated)
- EC50 [21]: 2.81 µM (active)
- EC50 [22]: 92.4 µM (inactive)

Structure (SMILES): CCOC(=O)[N-]c1cn(N2CCOCC2)n[o+]1 [MOLSIDOMINE]
- IC50 [23]: 24.7 µM (active)
